In US20020026053A1, “Novel 3-(substituted) -2- indolinones compounds and use thereof as inhibitors of protein kinase activity” (priority 1997, published 2002):

biological target: T1, Met receptor (EGFR/Met chimeric cells, EMR) (Homo sapiens, UniProt P08581); experiment: Met Autophosphorylation Assay; assay type: biochemical
T1 construct: expressed in transfected cells; the other entry of the earlier key: EGFR (P00533, Epidermal growth factor receptor)
Procedure, shortened: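 Transiently transfected EGFR/Met chimeric (EMR) cells were lysed in HNTG with 1 mM PMSF. Met was captured on plates coated with goat anti-rabbit IgG, then rabbit anti-Met (C-28), using 90 μg lysate/100 μl for 60 min at room temperature. Phosphotyrosine was read by ELISA.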

T1 sequence (P08581 with tags, fused parts or gaps): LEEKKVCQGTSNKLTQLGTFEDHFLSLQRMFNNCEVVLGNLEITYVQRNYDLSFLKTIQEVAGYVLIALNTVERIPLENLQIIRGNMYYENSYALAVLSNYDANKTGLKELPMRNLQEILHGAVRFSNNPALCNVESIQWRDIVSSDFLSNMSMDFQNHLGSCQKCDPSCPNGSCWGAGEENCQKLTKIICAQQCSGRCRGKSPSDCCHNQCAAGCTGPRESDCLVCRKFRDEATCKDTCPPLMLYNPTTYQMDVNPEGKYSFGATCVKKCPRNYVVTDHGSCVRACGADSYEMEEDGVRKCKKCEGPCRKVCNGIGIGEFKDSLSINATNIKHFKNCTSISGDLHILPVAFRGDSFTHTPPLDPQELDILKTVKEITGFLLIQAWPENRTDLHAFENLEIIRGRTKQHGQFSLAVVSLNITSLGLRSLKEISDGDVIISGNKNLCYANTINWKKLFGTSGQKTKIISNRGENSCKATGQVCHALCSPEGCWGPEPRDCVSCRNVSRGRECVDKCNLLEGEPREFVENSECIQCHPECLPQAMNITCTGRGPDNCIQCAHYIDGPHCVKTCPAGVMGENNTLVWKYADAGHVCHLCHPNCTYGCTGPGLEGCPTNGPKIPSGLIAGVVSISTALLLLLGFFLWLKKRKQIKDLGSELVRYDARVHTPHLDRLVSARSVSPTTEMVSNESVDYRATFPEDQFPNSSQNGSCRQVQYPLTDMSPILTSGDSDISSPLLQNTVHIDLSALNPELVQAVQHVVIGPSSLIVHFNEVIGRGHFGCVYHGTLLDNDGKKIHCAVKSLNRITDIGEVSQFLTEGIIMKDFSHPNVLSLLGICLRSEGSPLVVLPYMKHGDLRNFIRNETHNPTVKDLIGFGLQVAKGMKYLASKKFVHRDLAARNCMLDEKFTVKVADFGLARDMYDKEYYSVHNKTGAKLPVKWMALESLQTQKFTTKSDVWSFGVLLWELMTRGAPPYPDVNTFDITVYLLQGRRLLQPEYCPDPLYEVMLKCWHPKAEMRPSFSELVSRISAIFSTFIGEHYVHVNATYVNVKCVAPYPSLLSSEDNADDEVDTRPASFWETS

SMILES	Met Kinase % Inhibition (P.130) [%]
CCOc1ccccc1C=C1C(=O)Nc2c(Br)cc(Br)c(C)c21 [10717/H02]	44.5
Cc1c(Br)cc(Br)c2c1C(=Cc1cccs1)C(=O)N2 [10717/H03]	18.3
Cc1c(Br)cc(Br)c2c1C(=Cc1cccn1C)C(=O)N2 [10717/H04]	14.0
COc1ccc(C=C2C(=O)Nc3c(Br)cc(Br)c(C)c32)cc1OC [10720/H04]	21.3
Cc1c(Br)cc(Br)c2c1C(=Cc1ccccc1O)C(=O)N2 [10720/H05]	51.0
Cc1c(Br)cc(Br)c2c1C(=Cc1ccccc1)C(=O)N2 [10720/H06]	24.4
CSc1ccc(C=C2C(=O)Nc3c(Br)cc(Br)c(C)c32)s1 [10720/H07]	10.8
Cc1cc(O)cc(O)c1C=C1C(=O)Nc2c(Br)cc(Br)c(C)c21 [10720/H08]	40.0
CCOc1cc(C=C2C(=O)Nc3c(Br)cc(Br)c(C)c32)ccc1O [10720/H09]	49.0
COc1ccc(O)c(C=C2C(=O)Nc3c(Br)cc(Br)c(C)c32)c1 [10720/H10]	48.2
Cc1c(Br)cc(Br)c2c1C(=Cc1ncc[nH]1)C(=O)N2 [10720/H11]	28.0
Cc1c(Br)cc(Br)c2c1C(=Cc1nc3ccccc3n1C)C(=O)N2 [10721/H02]	39.7
Cc1c(Br)cc(Br)c2c1C(=Cc1nn(C)cc1Cl)C(=O)N2 [10721/H03]	21.3
Cc1cc(C=C2C(=O)Nc3c(Br)cc(Br)c(C)c32)sc1C [10721/H04]	72.9
Cc1c(Br)cc(Br)c2c1C(=Cc1cc3c([nH]1)CCCC3)C(=O)N2 [10721/H05]	33.6
Cc1c(Br)cc(Br)c2c1C(=Cc1cc([N+](=O)[O-])cc(CCl)c1O)C(=O)N2 [10721/H06]	90.3

SMILES	Met Kinase % Inhibition (P.130) [%]
Cc1c(Br)cc(Br)c2c1C(=Cc1ccc(Cl)s1)C(=O)N2 [10721/H07]	10.4
Cc1cc(C)c(C=C2C(=O)Nc3c(Br)cc(Br)c(C)c32)[nH]1 [10721/H08]	42.5
Cc1c(Br)cc(Br)c2c1C(=Cc1ccc(O)c(C(C)(C)C)c1)C(=O)N2 [10721/H09]	36.7
Cc1c(Br)cc(Br)c2c1C(=Cc1cc(Br)c(O)c(C(C)(C)C)c1)C(=O)N2 [10721/H10]	46.9
Cc1c(Br)cc(Br)c2c1C(=Cc1cc(C(C)(C)C)c(O)c(C(C)(C)C)c1)C(=O)N2 [10721/H11]	46.0
Cc1c(Br)cc(Br)c2c1C(=Cc1cc([N+](=O)[O-])c(O)c(C(C)(C)C)c1)C(=O)N2 [10722/H02]	37.8
Cc1c(Br)cc(Br)c2c1C(=Cc1c(O)cc(O)cc1O)C(=O)N2 [10722/H03]	100.5
Cc1c(Br)cc(Br)c2c1C(=Cc1ccc([N+](=O)[O-])s1)C(=O)N2 [10722/H04]	62.2
Cc1c(Br)cc(Br)c2c1C(=Cc1ccc(C(=O)O)cc1)C(=O)N2 [10722/H05]	83.2
Cc1c(Br)cc(Br)c2c1C(=Cc1ccc(F)cc1F)C(=O)N2 [10722/H06]	70.3
Cc1cc(C=C2C(=O)Nc3c(Br)cc(Br)c(C)c32)cc(C)c1O [10722/H07]	51.0
Cc1c(Br)cc(Br)c2c1C(=Cc1cc(Cl)c(O)c(C(C)(C)C)c1)C(=O)N2 [10722/H08]	72.6
Cc1c(Br)cc(Br)c2c1C(=Cc1csc([N+](=O)[O-])c1)C(=O)N2 [10722/H09]	67.6
CCCCN(CCCC)c1ccc(C=C2C(=O)Nc3c(Br)cc(Br)c(C)c32)cc1 [10722/H10]	30.3
Cc1c(Br)cc(Br)c2c1C(=Cc1ccc(C(F)(F)F)cc1)C(=O)N2 [10722/H11]	66.1
Cc1c(Br)cc(Br)c2c1C(=Cc1ccc(O)c(O)c1O)C(=O)N2 [10723/H02]	100.8
